Positions of bridges follow the written chain, without caps; N, C: chain ends. Non-standard residues stand in square brackets, D forms with d. Residues, ends and D or L forms follow the SMILES beside them. Nle = CCCC[C@H](N)C(=O)O
Key:
[1] = Intraperitoneal glucose tolerance test (IPGTT), plasma glucose; type: in vivo, Wistar rats; details: plasma glucose area under the curve after IPGTT (1 g/kg glucose), % of vehicle; 1 nmol/kg peptide i.v.
Description: Wistar rats are fasted overnight and then anesthetized with pentobarbital. The rats were eye-bled (zero time) and the peptide ( in 1% human albumin) was injected into the tail vein. Five minutes later, 1 g/kg of glucose (in saline) was injected intraperitoneally, and the rats were eye-bled after 15, 30 and 60 minutes. Plasma glucose levels were determined using the Technicon Axon autoanalyzer, Bayer Diagnosics division of Bayer Corporation, Tarrytown NY, operated using Method No. SM4-2143F90 "Glucose".
In accordance with the protocol of example 2 above, overnight fasted Wistar rats were anesthetized with pentobarital; i.v. injected with glucose ± peptide and eye bled after 1 minute. N=12 rats/group. […] The peptide or vehicle was given i.v. followed by a glucose load given i.p. in accordance with example 3. The plasma glucose was followed over the time period indicated.
Wistar rats were fasted overnight and then anesthetized with Pentobarbital. The rats were eye-bled (zero time) and the peptide (in 1 % human albumin) was injected subcutaneously. Five minutes later, 1 g/kg of glucose (in saline) was injected intraperitoneally, and the rats were eye-bled after 30 minutes.
Plasma glucose: Data are expressed as % of vehicle of plasma glucose area under the curve after IPGTT (1 g/kg glucose) after treatment with 1 nmol/kg dose of the peptide. […] The present Inventors have shown for the first time that this is because the effects of R2 and R3 on glucose tend to cancel each other out. […] Therefore, R3-selectlvlty appears to be a desirable attribute for medicaments which are to be employed in achieving blood glucose reduction, for treatment of type 2 diabetes.

[2] = tested on: rat islets; assay: Insulin release from isolated rat islets; type: cell-based, Sprague-Dawley rats; details: peptide 10nM for 2hrs, 8mM glucose; % of [insulin] in 8mM glucose alone
Description: Sprague Dawley rats (275-320 g) were used as the source of donor islets. Briefly, the pancreas was filled with 10 ml of cold reconstituted Liberase RI (Boehringer Manheim), harvested and incubated with additional 5 ml enzyme solution in water bath for 30 minutes. Tissue suspension was washed twice with cold 10% FBS/Hanks buffer (Gibco), resuspended in 8 ml 25% ficoll (Sigma) and then layered with 5 ml each of 23%, 20% and 11 % ficoll. The islets in the 20% layer after centrifugation were removed, washed twice with cold 10% FBS/Hank buffer and resuspended in 10% FBS/RPMI 1640 media (Sigma).
Islet insulin release: Rat islets were isolated from Sprague-Dawley rats as described in example 1 and treated with either vehicle or specified peptide (10nM) for 2hrs. Insulin concentration in the medium was measured with the Linco rat insulin RIA kit. Glucose concentration in the medium was 8mM. The data are expressed as % of [insulin] in 8mM glucose alone. No polypeptide-induced Increases in insulin concentration were observed al 3 mM glucose; thus, the insulin releasing activity of these polypeptides are glucose-dependent. It should be noted that the following Table includes data for polypeptides which are not part of the present invention.

[3] = Airway hyperresponsiveness in the primate acute asthma model; type: in vivo, cynomolgus monkeys (Macaca fascicularis)
Description: Male cynomolgus monkeys (Macaca fascicularis) used in this study were maintained at constant temperature and humidity, with a twelve hour light cycle. They were fed twice daily, except on an experimental day when food was withheld the night before the procedure. Water was available ad lib at all times.
Airway hyperresponsiveness (AHR)(baseline) was measured 1 week before the control (no treatment) antigen challenge, and again 24hrs after antigen challenge. Antigen-induced airway hyperresponsiveness was measured by a fall in the PC100 (the concentration of methacholine required to cause a 100% increase in lung resistance) at 24hr compared to baseline. After 2 weeks rest, another baseline measurement of AHR was performed. […] AHR was again measured, and the fall in PC100 with treatment was compared to that without treatment. […]
The endotracheal tube was connected to a Harvard Ventilator adjusted to deliver 30-35 breaths per minute. Airflow was measured by a Fleisch pneumotachograph and thoracic pressure was measured by a validyne pressure transducer (as the difference between the pressure at the distal end of the et tube and room pressure). […]
Antigen challenge: This was an inhalation challenge with Ascaris suum. […] 30 breaths of antigen were administered after which the acute bronchoconstriction was monitored for 15min. […]

[4] = molecular target: T1, PACAP-R3 (Homo sapiens, UniProt P41587); details: literature; cited from earlier work
T1 sequence (P41587 24-438): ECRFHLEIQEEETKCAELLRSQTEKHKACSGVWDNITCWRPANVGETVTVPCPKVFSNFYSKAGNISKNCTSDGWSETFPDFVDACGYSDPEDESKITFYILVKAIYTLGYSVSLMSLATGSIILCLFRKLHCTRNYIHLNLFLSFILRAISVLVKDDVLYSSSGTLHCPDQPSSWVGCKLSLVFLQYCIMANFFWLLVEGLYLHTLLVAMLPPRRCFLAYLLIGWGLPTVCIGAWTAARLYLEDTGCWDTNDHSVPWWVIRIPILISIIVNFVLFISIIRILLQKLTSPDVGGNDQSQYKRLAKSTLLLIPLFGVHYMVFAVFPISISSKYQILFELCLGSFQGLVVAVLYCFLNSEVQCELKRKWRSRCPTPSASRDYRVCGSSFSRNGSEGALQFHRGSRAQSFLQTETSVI

[5] = tested on: guinea pig tracheal smooth muscle; details: Bolin et al 1995; US 5,677,419; cited from earlier work

SMILES: CCCC[C@H](NC(=O)[C@H](CCC(N)=O)NC(=O)[C@H](CCCCN)NC(=O)[C@H](CCCNC(=N)N)NC(=O)[C@H](CC(C)C)NC(=O)[C@H](CCCCN)NC(=O)[C@@H](NC(=O)[C@H](Cc1ccc(O)cc1)NC(=O)[C@H](CC(N)=O)NC(=O)[C@H](CCC(=O)O)NC(=O)[C@@H](NC(=O)[C@H](Cc1ccccc1)NC(=O)[C@@H](NC(=O)[C@H](C)NC(=O)[C@H](CC(=O)O)NC(=O)[C@H](CO)NC(=O)[C@H](Cc1c[nH]cn1)NC(C)=O)C(C)C)[C@@H](C)O)[C@@H](C)O)C(=O)N[C@@H](C)C(=O)N[C@@H](C)C(=O)N[C@@H](CCCCN)C(=O)N[C@H]1CCCCNC(=O)C[C@@H](C(=O)N[C@@H](CC(C)C)C(=O)N[C@@H](CCCCN)C(=O)N[C@@H](CCCCN)C(=O)NCC(=O)NCC(=O)N[C@H](C(N)=O)[C@@H](C)O)NC(=O)[C@H](CC(N)=O)NC(=O)[C@H](CC(C)C)NC(=O)[C@H](Cc2ccc(O)cc2)NC1=O [Peptide R3P0] (Ac-HSDAVFTENYTKLRKQ[Nle]AAKKYLNDLKKGGT-NH2; lactam 21-25 (inferred))
- Plasma Glucose (% of Basal) i.v. [1]: 77 % of Basal
- Islet Insulin Release (% of Basal) [2]: 264 % of Basal
- Delta log10 PC100, Mean, Treated ([3]; 0.6ug/mg aerosol 10 minutes before antigen challenge, +24hr minus baseline, N 4): -0.150
- % Inhibition of induced AHR ([3]; 0.6ug/mg aerosol, P(Treated vs Control) 0.240): 54%
- PACAP-R3 selectivity [4]: greater than 100 fold
- relaxing guinea pig tracheal smooth muscle [5]: active

Source: patent EP1192182B1, “PITUITARY ADENYLATE CYCLASE ACTIVATING PEPTIDE (PACAP) RECEPTOR 3 (R3) AGONISTS AND THEIR PHARMACOLOGICAL METHODS OF USE” (priority 1999, dated 2001)
